In patent publication US5543401A (priority 1994, dated 1996):

Experiments:
[1] = Toxicity of 5-FU 130 mg/kg/wk in CD8FI female mice with breast tumors (FIG. 1); type: in vivo, mouse; conditions: mouse, in vivo, iv; 5-FU 130 mg/kg/wk i.v. × 3 weeks
Method: (§1) FIG. 1 is a plot showing the toxicity of 5-fluorouracil. Toxicity in the plot is measured as a function of the percent of body weight change over time.
(§2) FIG. 1 establishes that 5-FU administered by i.v. in doses of 130 mg/kg/wk to mice is a toxic dose. Toxicity is determined by a change in body weight. Ten CD8FI female mice with breast tumors were treated with weekly doses of 5-fluorouracil in amounts of 130 mg/kg for three weeks. The percent of body weight change of the mice is shown and plotted over a period of approximately 12 days after administration of the last dose. The mice receiving 130 mg/kg of 5-FU suffered a weight loss of approximately 25% and a mortality of 30%.

[2] = tested on: breast tumors; experiment: as above; type: in vivo, mouse
Method: as §1, §2

[3] = Toxicity of 5-FU and tumor weight in tumor-bearing CD8FI female mice (Table 2); conditions: mouse, in vivo, iv
[4] = tested on: tumor; experiment: as above
[5] = tested on: tumor; experiment: 5-FU and oral BAU in tumor-bearing CD8FI mice (Table 5); conditions: 5-FU 150 mg/kg/wk
[6] = Toxic dose of weekly 5-FU and severity of myelosuppression in patients (Table 1); type: in vivo, human; conditions: for Toxic dose: weekly i.v. 5-FU
Method: A representative schedule of clinical administration includes administering weekly i.v. injections of a bolus of 5-FU on an outpatient basis. A typical starting dose is about 500 mg/m^2. Every four weeks the 5-FU dose is increased by 20% until dose-limiting toxicity occurs, which can be indicated by weight loss, or destruction of bone marrow cells and the loss of white blood cells.

[7] = tested on: phosphorylase; conditions: in combination with uridine (Martin et al); cited from earlier work
[8] = BAU toxicity in animals; type: in vivo; conditions: animal data
Method: BAU may be administered orally at the rate of 0.5-2 g/m^2 every 4-6 hours for 3 days starting 1/2-2 hours after 5-FU administration, i.e., between 6 g/m^2 /wk and 36 g/m^2 /wk. Based on animal data BAU is non-toxic. Accordingly, it appears that the amounts of BAU which can be administered are not limited by toxic effects and, therefore, increased amounts of BAU may be administered.

[9] = tested on: thymidylate synthetase; conditions: Goodman & Gilman 5th Ed.; cited from earlier work
[10] = tested on: tumor; experiment: 5-FU and oral uridine rescue plus BAU in tumor-bearing CD8FI mice (Table 7); type: in vivo, mouse; conditions: 5-FU 150 mg/kg
Method: (§3) Observations were recorded 6 days after the last injection.
(§4) A second trial was repeated by administering uridine 2 hours after the administration of 5-fluorouracil in a concentration of 780 mg/kg and then 2 1/2 hours later at a concentration of 1,040 mg/kg every 8 hr×5.

[11] = in vivo, cited from earlier work
[12] = tested on: tumor; experiment: 5-FU and oral uridine rescue in tumor-bearing CD8FI mice (Table 4); type: in vivo, mouse; conditions: 5-FU 150 mg/kg weekly
Method: as §3, §4

[13] = 5-FU 100 mg/kg i.v. weekly × 3, 6 days after last injection
[14] = 5-FU 150 mg/kg i.v. weekly × 3, 6 days after last injection
[15] = patient 1, weekly 5-FU toxic dose 720 mg/m^2
[16] = patient 2, weekly 5-FU toxic dose 600 mg/m^2
[17] = patient 3, weekly 5-FU toxic dose 600 mg/m^2
[18] = patient 4, weekly 5-FU toxic dose 864 mg/m^2
[19] = patient 5, weekly 5-FU toxic dose 864 mg/m^2
[20] = patient 6, weekly 5-FU toxic dose 864 mg/m^2
[21] = patient 7, weekly 5-FU toxic dose 600 mg/m^2
[22] = patient 8 (first), weekly 5-FU toxic dose 720 mg/m^2
[23] = patient 8 (second), weekly 5-FU toxic dose 720 mg/m^2
[24] = oral UR 600 then 800 mg/kg q. 8 hr × 5, plus oral BAU 250 mg/kg
[25] = oral UR 780 then 1,040 mg/kg q. 8 hr × 5, plus oral BAU 250 mg/kg
[26] = then oral UR 600 mg/kg at 2 hrs, then 800 mg/kg q. 8 hr × 5
[27] = then oral UR 780 mg/kg at 2 hrs, then 1,040 mg/kg q. 8 hr × 5

## O=c1[nH]cc(F)c(=O)[nH]1 [5-FU, 5-fluorouracil]
[1]
  Mortality: 30%
[2]; 5-FU 130 mg/kg/wk i.v. × 3 weeks
  weight loss: approximately 25%
[2]; i.v., mice
  Toxic dose: 130 mg/kg/wk
[3]
  MTD: 100 mg/kg
[3]; 150 mg/kg
  Mortality: 80%
[4]; [13]
  Mortality: 0/10
  Tumor Weight: 688 mgs
[4]; [14]
  Mortality: 8/10
  Tumor Weight: 433 mgs
[5]
  lethality of 5-FU (in words): lethal dose
[6]; [15]
  Nadir at toxicity, Platelets: 1.51e+08 mL⁻¹
  Nadir at toxicity, wbc: 1.6e+06 mL⁻¹
[6]; [16]
  Nadir at toxicity, Platelets: 1.01e+08 mL⁻¹
  Nadir at toxicity, wbc: 2.7e+06 mL⁻¹
[6]; [17]
  Nadir at toxicity, Platelets: 7.6e+07 mL⁻¹
  Nadir at toxicity, wbc: 1.4e+06 mL⁻¹
[6]; [18]
  Nadir at toxicity, Platelets: 1.1e+08 mL⁻¹
  Nadir at toxicity, wbc: 2.8e+06 mL⁻¹
[6]; [19]
  Nadir at toxicity, Platelets: 2.05e+08 mL⁻¹
  Nadir at toxicity, wbc: 2e+06 mL⁻¹
[6]; [20]
  Nadir at toxicity, Platelets: 8.4e+07 mL⁻¹
  Nadir at toxicity, wbc: 4.3e+06 mL⁻¹
[6]; [21]
  Nadir at toxicity, Platelets: 8.2e+07 mL⁻¹
  Nadir at toxicity, wbc: 6.7e+06 mL⁻¹
[6]; [22]
  Nadir at toxicity, Platelets: 9.5e+07 mL⁻¹
  Nadir at toxicity, wbc: 4.1e+06 mL⁻¹
[6]; [23]
  Nadir at toxicity, Platelets: 7.4e+07 mL⁻¹
  Nadir at toxicity, wbc: 3.7e+06 mL⁻¹
[6]; patient 1, WHO 1, prior chemotherapy None
  Toxic dose: 720 mg/m^2
[6]; patient 2, WHO 1, prior chemotherapy None
  Toxic dose: 600 mg/m^2
[6]; patient 3, WHO 0, prior HAI 5-FU
  Toxic dose: 600 mg/m^2
[6]; patient 4, WHO 2, prior chemotherapy None
  Toxic dose: 864 mg/m^2
[6]; patient 5, WHO 1, prior chemotherapy None
  Toxic dose: 864 mg/m^2
[6]; patient 6, WHO 1, prior HAI 5-FU
  Toxic dose: 864 mg/m^2
[6]; patient 7, WHO 1, prior TGU
  Toxic dose: 600 mg/m^2
[6]; patient 8 (first), WHO 1, prior chemotherapy None
  Toxic dose: 720 mg/m^2
[6]; patient 8 (second), WHO 0, prior FAC
  Toxic dose: 720 mg/m^2

## O=c1[nH]c(=O)n(COCCO)cc1Cc1ccccc1 [BAU, 5-benzylacyclouridine]
[7]
  effect on uridine breakdown and clearance: prevents the breakdown of uridine by phosphorylase and the subsequent rapid body clearance of uridine
[8]
  toxicity: non-toxic

## O=c1[nH]c(=O)n([C@H]2C[C@H](O)[C@@H](COP(=O)(O)O)O2)cc1F [F-dUMP, 5-fluoro-2'-deoxyuridine-5'-phosphate]
[9]
  affinity for thymidylate synthetase: unusually great affinity

## O=c1ccn([C@@H]2O[C@H](CO)[C@@H](O)[C@H]2O)c(=O)[nH]1 [uridine]
[10]; [24]
  Mortality: 0/10
  Tumor Weight: 475 mgs
[10]; [25]
  Mortality: 1/10
  Tumor Weight: 434 mgs
[11]; iv
  side effects of intravenous uridine: fever and phlebitis
[11]; po
  side effects of oral uridine in large doses: irritates the gastrointestinal tract, which frequently causes severe diarrhea
[11]
  catabolism of uridine: quickly catabolized
  plasma uridine levels after large doses of uridine: millimolar or high micromolar uridine levels
[12]; [26]
  Mortality: 4/10
  Tumor Weight: 242 mgs
[12]; [27]
  Mortality: 0/10
  Tumor Weight: 361 mgs
